Measurements: patent publication US20150105252A1, “SUBSTITUTED PYRAZOLES AS HERBICIDES” (E I DU PONT DE NEMOURS AND COMPANY, priority 2013, published 2015)

Assays:
Italian ryegrass [1] = experiment: Test F postemergence; assay type: in vivo, Lolium multiflorum; conditions: scale 0 to 100
Text: (§1) Seeds of plant species selected from corn (Zea mays), soybean (Glycine max), velvetleaf (Abutilon theophrasti), lambsquarters (Chenopodium album), wild poinsettia (Euphorbia heterophylla), pigweed, palmer (palmer pigweed, Amaranthus palmeri), common waterhemp (Amaranthus rudis), surinam grass (Brachiaria decumbens), large crabgrass (Digitaria sanguinalis), crabgrass, Brazil (Brazilian crabgrass, Digitaria horizontalis), fall panicum (Panicum dichotomiflorum), giant foxtail (Setaria faberii), green foxtail (Setaria viridis), goosegrass (Eleusine indica), johnsongrass (Sorghum halepense), common ragweed (Ambrosia elation), barnyardgrass (Echinochloa crus-galli), southern sandbur (Cenchrus echinatus), arrowleaf sida (Sida rhombifolia), Italian ryegrass (Lolium multiflorum), dayflower, VA (Virginia (VA) dayflower, Commelina virginica), field bindweed (Convolvulus arvensis), cocklebur (common cocklebur, Xanthium strumarium), morningglory (Ipomoea coccinea), nightshade (eastern black nightshade, Solanum ptycanthum), kochia (Kochia scoparia), yellow nutsedge (Cyperus esculentus), and hairy beggarticks (Bidens pilosa), were planted into a silt loam soil and treated preemergence with test chemicals formulated in a non-phytotoxic solvent mixture which included a surfactant.
(§2) At the same time, plants from these crop and weed species and also horseweed (Canada horseweed, Conyza canadensis), smartweed (ladysthumb smartweed, Polygonum persicaria), waterhemp_RES1, (ALS & Triazine resistant common waterhemp, Amaranthus rudis), and waterhemp_RES2, (ALS & HPPD resistant common waterhemp, Amaranthus rudis) were treated with postemergence applications of test chemicals formulated in the same manner. Plants ranged in height from 2 to 18 cm for postemergence treatments (1- to 4-leaf stage). Treated plants and controls were maintained in a greenhouse for 14 to 21 days, after which time all species were compared to controls and visually evaluated. Plant response ratings, summarized in Table F, are based on a scale of 0 to 100 where 0 is no effect and 100 is complete control. A dash (-) response means no test result.

kochia = experiment: Test F preemergence; assay type: in vivo, Kochia scoparia
Text: as §1, §2

lambsquarters = experiment: Test F preemergence; assay type: in vivo, Chenopodium album
Text: as §1, §2

Italian ryegrass [2] = experiment: Test A preemergence; assay type: in vivo, Lolium multiflorum
Summary of the method: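 Visual injury ratings, 0 = no effect to 100 = complete control, taken about 10 days after treatment against untreated controls. Test chemicals, in a non-phytotoxic surfactant-containing solvent, were sprayed onto soil preemergence or onto one- to two-leaf plants (2–10 cm) postemergence, in loam–sand soil under greenhouse conditions.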

[3] = Preemergence, 31 g ai/ha, scale 0 to 100
[4] = Preemergence, 62 g ai/ha, scale 0 to 100
[5] = Preemergence, 125 g ai/ha, scale 0 to 100
[6] = preemergence, 8 g ai/ha, scale 0 to 100, 100 is complete control
[7] = preemergence, 16 g ai/ha, scale 0 to 100, 100 is complete control
[8] = 125 g ai/ha, visual injury, 0 to 100 scale, approx. 10 days
[9] = 500 g ai/ha, visual injury after approx. 10 days, 0 to 100 scale (0 no effect, 100 complete control)
[10] = Preemergence, 250 g ai/ha, scale 0 to 100

CCc1cc(-c2ccc(C(F)(F)F)cc2)nn1Cc1ccnc(C(F)(F)F)c1 [Compound 110]
Plant response rating, Italian Ryegrass (Italian ryegrass [1]; Postemergence, 16 g ai/ha): 20 | Plant response rating, Italian Ryegrass (Italian ryegrass [1]; Postemergence, 31 g ai/ha): 20 | Plant response rating, Italian Ryegrass (Italian ryegrass [1]; Postemergence, 125 g ai/ha): 30 | Plant response rating, Italian Ryegrass (Italian ryegrass [1]; postemergence, 8 g ai/ha): 10 | Plant response rating, Kochia (kochia; [3]): 70 | Plant response rating, Kochia (kochia; [4]): 80 | Plant response rating, Kochia (kochia; [5]): 90 | Plant response rating, Kochia (kochia; [6]): 20 | Plant response rating, Kochia (kochia; [7]): 25 | Plant response rating, Lambsquarters (lambsquarters; [3]): 65 | Plant response rating, Lambsquarters (lambsquarters; [4]): 50 | Plant response rating, Lambsquarters (lambsquarters; [5]): 100 | Plant response rating, Lambsquarters (lambsquarters; [6]): 0 | Plant response rating, Lambsquarters (lambsquarters; [7]): 0

CCc1cc(C(=O)NOC(C)C)nn1Cc1ccnc(OC(F)F)c1 [Compound 126]
Italian Ryegrass plant response rating (Italian ryegrass [2]; [8]): 90 | Italian Ryegrass plant response rating (Italian ryegrass [2]; [9]): 100

CCc1cc(C(=O)NCC(F)(F)F)nn1Cc1ccnc(Br)c1 [Compound 224]
Plant response rating, Kochia (kochia; [4]): 90 | Plant response rating, Kochia (kochia; [5]): 100 | Plant response rating, Kochia (kochia; [10]): 100 | Plant response rating, Lambsquarters (lambsquarters; [4]): 98 | Plant response rating, Lambsquarters (lambsquarters; [5]): 98 | Plant response rating, Lambsquarters (lambsquarters; [10]): 100

CCCc1cc(C(=O)NC2CC2)nn1Cc1ccnc(OC(F)F)c1 [Compound 205]
Italian Ryegrass plant response rating (0 to 100 scale) (Italian ryegrass [2]; 125 g ai/ha, visual injury approx. 10 days after treatment): 50 | Italian Ryegrass plant response rating (Italian ryegrass [2]; [9]): 100

CCCNC(=O)c1cc(CC)n(Cc2nc(C(F)(F)F)nn2C)n1 [Compound 109]
Plant response rating, Italian Ryegrass (Italian ryegrass [1]; Postemergence, 16 g ai/ha): 0 | Plant response rating, Italian Ryegrass (Italian ryegrass [1]; Postemergence, 31 g ai/ha): 0 | Plant response rating, Italian Ryegrass (Italian ryegrass [1]; Postemergence, 125 g ai/ha): 15 | Plant response rating, Italian Ryegrass (Italian ryegrass [1]; Postemergence, 250 g ai/ha): 30

CCCc1cc(C(=O)NCC(F)(F)F)nn1Cc1ccnc(OC(F)F)c1 [Compound 127]
Italian Ryegrass plant response rating (Italian ryegrass [2]; [8]): 40 | Italian Ryegrass plant response rating (Italian ryegrass [2]; [9]): 90

CCOc1cc(C(=O)NCC(F)(F)F)nn1Cc1ccnc(OC(F)F)c1 [Compound 128]
Italian Ryegrass plant response rating (Italian ryegrass [2]; [8]): 30 | Italian Ryegrass plant response rating (Italian ryegrass [2]; [9]): 100
